From ChEMBL document CHEMBL1142823, “Analysis of structure-activity relationships for the 'B-region' of N-(4-t-butylbenzyl)-N'-[4-(methylsulfonylamino)benzyl]-thiourea analogues as TRPV1 antagonists” (Bioorg Med Chem Lett, 2005)

Tests used:
[1] = target: T1, Transient receptor potential cation channel subfamily V member 1 (Rattus norvegicus, UniProt O35433); test: Induction of [Ca2+] uptake in CHO cells expressing rat TRPV1 at 10-30 uM relative to 300 nM capsaicin; Not effective; format: functional, cell-based
T1 sequence (O35433 whole entry): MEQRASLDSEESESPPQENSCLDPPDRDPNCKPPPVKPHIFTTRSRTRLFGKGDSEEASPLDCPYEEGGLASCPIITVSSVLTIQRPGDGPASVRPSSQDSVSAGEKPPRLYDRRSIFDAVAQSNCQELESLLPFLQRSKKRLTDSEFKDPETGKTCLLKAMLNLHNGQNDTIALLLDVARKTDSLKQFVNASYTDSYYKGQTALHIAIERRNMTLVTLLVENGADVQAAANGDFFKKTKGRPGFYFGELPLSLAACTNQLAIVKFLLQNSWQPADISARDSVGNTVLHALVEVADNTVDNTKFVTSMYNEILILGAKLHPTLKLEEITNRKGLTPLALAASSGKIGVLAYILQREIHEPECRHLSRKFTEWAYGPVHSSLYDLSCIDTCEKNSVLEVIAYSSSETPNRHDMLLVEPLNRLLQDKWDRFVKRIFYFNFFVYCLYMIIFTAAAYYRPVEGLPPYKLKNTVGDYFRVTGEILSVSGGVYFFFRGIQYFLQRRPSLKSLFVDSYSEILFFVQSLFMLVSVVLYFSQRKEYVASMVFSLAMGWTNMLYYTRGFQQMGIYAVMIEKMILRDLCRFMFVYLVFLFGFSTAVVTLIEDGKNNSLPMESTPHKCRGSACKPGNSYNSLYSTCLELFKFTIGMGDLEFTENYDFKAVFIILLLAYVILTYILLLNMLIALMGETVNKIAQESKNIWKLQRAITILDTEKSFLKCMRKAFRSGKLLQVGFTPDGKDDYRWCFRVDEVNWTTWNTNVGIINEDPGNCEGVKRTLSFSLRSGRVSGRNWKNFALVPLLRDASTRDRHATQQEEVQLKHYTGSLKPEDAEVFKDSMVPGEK

[2] = target: T1, Transient receptor potential cation channel subfamily V member 1; test: Antagonist activity towards rat TRPV1 expressed in CHO cells; format: functional, cell-based
[3] = target: T1, Transient receptor potential cation channel subfamily V member 1; test: In vitro inhibition of [3H]RTX binding to rat TRPV1 expressed in CHO cells; format: cell-based
[4] = target: T1, Transient receptor potential cation channel subfamily V member 1; test: Antagonist activity towards rat TRPV1 expressed in CHO cells; Not effective; format: functional, cell-based
[5] = target: T1, Transient receptor potential cation channel subfamily V member 1; test: Induction of [Ca2+] uptake in CHO cells expressing rat TRPV1 at 10-30 uM relative to 300 nM capsaicin; Weakly effective; format: functional, cell-based
[6] = target: T1, Transient receptor potential cation channel subfamily V member 1; test: Induction of [Ca2+] uptake in CHO cells expressing rat TRPV1 relative to 300 nM capsaicin; format: functional, cell-based

Structure (SMILES) | EC50 [1] | Ki [2] | Ki [3] | other results
Cc1ccc(CCCNC(=O)Cc2ccc(NS(C)(=O)=O)cc2)cc1C | Not Active | 13600 nM | 7180 nM | –
CC(C)(C)c1ccc(N/N=C(\S)NCc2ccc(NS(C)(=O)=O)cc2)cc1 | Not Active | 2010 nM | 6400 nM | –
Oc1cc2c(cc1O)CN(C(=S)NCCc1ccc(Cl)cc1)CCC2 [CAPSAZEPINE] | Not Active | – | – | –
CCCCCCCC/C=C\CCCCCCCCNC(=O)Cc1ccc(NS(C)(=O)=O)cc1 | Not Active | – | > 25000 nM | Ki [4]: Not Active
CC(C)(C)c1ccc(C/N=C(\S)NNc2ccc(NS(C)(=O)=O)cc2)cc1 | Not Active | 1460 nM | – | –
CC(C)(C)c1ccc(CN(O)/C(S)=N/Cc2ccc(NS(C)(=O)=O)c(Cl)c2)cc1 | Not Active | 579 nM | 1310 nM | –
CC(C)(C)c1ccc(CNC(=O)Cc2ccc(NS(C)(=O)=O)cc2)cc1 | Not Active | 398 nM | 2100 nM | –
CC(C)(C)c1ccc(CC(=O)N(O)Cc2ccc(NS(C)(=O)=O)cc2)cc1 | – | – | – | Ki [4]: Not Active
COc1cc(C/N=C(\S)OCc2ccc(C(C)(C)C)cc2)ccc1NS(C)(=O)=O | Not Active | 8400 nM | – | –
COc1cc(CO/C(S)=N/Cc2ccc(C(C)(C)C)cc2)ccc1NS(C)(=O)=O | Not Active | 110 nM | 461 nM | –
CC(C)(C)c1ccc(CO/C(S)=N/Cc2ccc(NS(C)(=O)=O)cc2)cc1 | – | 6250 nM | 4600 nM | efficacy [5]: 13%
CC(C)(C)c1ccc(CNC(=O)N(O)Cc2ccc(NS(C)(=O)=O)cc2)cc1 | – | – | – | Ki [4]: Not Active
CC(C)(C)c1ccc(CNC(=S)NCc2ccc(NS(C)(=O)=O)cc2)cc1 | Not Active | – | – | –
COc1cc(CNC(=S)NCc2ccc(C(C)(C)C)cc2)ccc1NS(C)(=O)=O | – | 3.4 nM | 50.4 nM | EC50 [5]: Partial agonist
CC(C)(C)c1ccc(CNC(=O)NCc2ccc(NS(C)(=O)=O)cc2)cc1 | Not Active | 225 nM | 2560 nM | –
CC(C)(C)c1ccc(CC(=O)NCc2ccc(NS(C)(=O)=O)cc2)cc1 | – | 6760 nM | 5220 nM | efficacy [5]: 20%
CC(C)(C)c1ccc(CNC(=S)NCc2ccc(NS(C)(=O)=O)c(F)c2)cc1 | Not Active | – | 53.5 nM | –
CC(C)(C)c1ccc(C/N=C(\S)OCc2ccc(NS(C)(=O)=O)cc2)cc1 | Not Active | 222 nM | 772 nM | –
COc1cc(C/N=C(\S)N(O)Cc2ccc(C(C)(C)C)cc2)ccc1NS(C)(=O)=O | – | – | – | Ki [4]: Not Active
CC(C)(C)c1ccc(CN(O)/C(S)=N/Cc2ccc(NS(C)(=O)=O)c(F)c2)cc1 | – | – | – | EC50 [6]: > 7060 nM; Ki [4]: Not Active
CC(C)(C)c1ccc(CNC(=O)Cc2ccc(NS(C)(=O)=O)c(F)c2)cc1 | Not Active | 118 nM | 472 nM | –
CC(C)(C)c1ccc(CN(O)C(=O)Cc2ccc(NS(C)(=O)=O)cc2)cc1 | – | 6600 nM | – | efficacy [5]: 30%
CC(C)(C)c1ccc(C/N=C(\S)N(O)Cc2ccc(NS(C)(=O)=O)cc2)cc1 | Not Active | 470 nM | – | –
CC(C)(C)c1ccc(CN(O)/C(S)=N/Cc2ccc(NS(C)(=O)=O)cc2)cc1 | – | 470 nM | – | efficacy [5]: 16%
CC(C)(C)c1ccc(CN(O)/C(S)=N/Cc2ccc(NS(C)(=O)=O)c([N+](=O)[O-])c2)cc1 | Not Active | 635 nM | – | –
Cc1ccc(CCCNC(=O)Cc2ccc(NS(C)(=O)=O)c(F)c2)cc1C | Not Active | 4660 nM | – | –
CC(C)(C)c1ccc(C/N=C(\S)OCc2ccc(NS(C)(=O)=O)c(F)c2)cc1 | – | 120 nM | 450 nM | efficacy [5]: 7%
CC(C)(C)c1ccc(CN(O)/C(S)=N/Cc2ccc(NS(C)(=O)=O)cc2Cl)cc1 | Not Active | – | 2270 nM | Ki [4]: Not Active
